Data from patent US9855268B2, “Triazolo[4,5-d]pyrimidine derivatives” (Merck Patent GmbH, priority 2013, dated 2018).
Structures can show the parent of a compound that is named as a salt.

Target: GCN2 (Homo sapiens, UniProt Q9P2K8)
Assay: GCN2 enzyme assay (TR-FRET Lanthascreen, GFP-eIF2alpha phosphorylation)
Type: biochemical
Conditions: 10 μM ATP, 80 nM GFP-eIF2a, 30 nM GCN2
Excerpt: GCN2: Assay Principle & Conditions
This assay can quantificate the activity of the serin kinase GCN2 (general control non-derepressible-2).
This kinase is involved in the stress metabolism of cells. It is activated upon starvation (amino acid depletion). Its natural substrate is eIF2a (eukaryotic initiation factor 2 alpha subunit), a translation factor, which gets activated (phosphorylated) by GCN2 in case of an amino acid bottleneck in the cells. This in turn leads to a halt of the protein synthesis. Inhibition of GCN2 results in stopping this mechanism: The cell can not stop protein production upon “starvation” stress.
The assay is run in two steps: the enzymatic reaction and the detection step. In the first step GCN2 is incubated with 10 μM ATP and 80 nM of the GFP-labelled substrate eIF2alpha at room temperature.
The enzymatic reaction is stopped by addition of EDTA. The amount of phosphorylated eIF2alpha is determined by TR-FRET (Lanthascreen): A complex is formed consisting of antibody and GFP labelled phospho-eIF2a, which allows a FRET upon exitation at 340 nm.
Final Concentrations in the Enzymatic Reaction

Sequence of GCN2 (Q9P2K8 whole entry, species assumed): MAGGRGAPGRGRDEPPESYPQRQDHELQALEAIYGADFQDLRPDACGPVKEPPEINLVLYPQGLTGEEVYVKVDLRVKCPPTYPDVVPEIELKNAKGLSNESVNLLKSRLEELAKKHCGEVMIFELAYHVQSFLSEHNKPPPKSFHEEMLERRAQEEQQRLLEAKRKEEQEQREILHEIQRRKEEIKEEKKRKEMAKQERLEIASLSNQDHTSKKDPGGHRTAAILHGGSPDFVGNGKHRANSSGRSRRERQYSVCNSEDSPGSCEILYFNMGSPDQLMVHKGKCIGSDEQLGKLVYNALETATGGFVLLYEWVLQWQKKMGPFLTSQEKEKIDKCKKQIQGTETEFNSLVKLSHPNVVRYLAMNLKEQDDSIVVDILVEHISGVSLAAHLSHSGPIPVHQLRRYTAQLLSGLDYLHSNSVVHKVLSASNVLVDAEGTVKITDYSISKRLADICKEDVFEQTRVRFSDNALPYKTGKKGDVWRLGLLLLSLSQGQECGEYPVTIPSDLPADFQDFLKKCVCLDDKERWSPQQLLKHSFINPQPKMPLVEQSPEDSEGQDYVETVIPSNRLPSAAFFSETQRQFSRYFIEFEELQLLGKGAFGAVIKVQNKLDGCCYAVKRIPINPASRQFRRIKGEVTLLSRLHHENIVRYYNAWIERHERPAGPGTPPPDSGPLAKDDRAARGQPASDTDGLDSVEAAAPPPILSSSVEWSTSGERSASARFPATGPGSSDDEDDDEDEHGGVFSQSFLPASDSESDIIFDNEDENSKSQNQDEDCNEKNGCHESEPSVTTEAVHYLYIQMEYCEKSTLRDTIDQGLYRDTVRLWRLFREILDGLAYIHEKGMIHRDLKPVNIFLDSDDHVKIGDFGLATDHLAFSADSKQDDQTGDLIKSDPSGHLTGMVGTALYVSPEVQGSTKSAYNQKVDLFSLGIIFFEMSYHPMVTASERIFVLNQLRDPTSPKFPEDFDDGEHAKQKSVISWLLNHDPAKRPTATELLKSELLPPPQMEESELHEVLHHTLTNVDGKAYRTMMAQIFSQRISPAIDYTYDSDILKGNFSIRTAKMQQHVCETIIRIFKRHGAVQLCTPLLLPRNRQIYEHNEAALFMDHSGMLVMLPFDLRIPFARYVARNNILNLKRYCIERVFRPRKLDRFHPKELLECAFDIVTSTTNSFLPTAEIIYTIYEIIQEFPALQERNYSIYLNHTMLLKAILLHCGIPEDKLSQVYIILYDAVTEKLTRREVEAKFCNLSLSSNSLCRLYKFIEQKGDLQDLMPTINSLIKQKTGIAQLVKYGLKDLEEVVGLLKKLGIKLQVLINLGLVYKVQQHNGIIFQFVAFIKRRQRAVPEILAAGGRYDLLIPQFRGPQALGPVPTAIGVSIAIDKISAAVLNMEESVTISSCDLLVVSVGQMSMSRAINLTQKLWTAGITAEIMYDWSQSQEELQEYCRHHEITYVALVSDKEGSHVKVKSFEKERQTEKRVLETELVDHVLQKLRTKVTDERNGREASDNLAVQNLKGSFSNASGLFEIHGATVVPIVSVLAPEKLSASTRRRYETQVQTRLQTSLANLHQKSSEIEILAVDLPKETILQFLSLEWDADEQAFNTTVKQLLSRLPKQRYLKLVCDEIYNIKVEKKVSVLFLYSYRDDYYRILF

IC50 | SMILES
1 to 5 µM | COc1ccc(-n2nnc3cnc(NCCc4ccccc4)nc32)cc1 [B10, [3-(4-methoxy-phenyl)-3H-[1,2,3]triazolo[4,5-d]pyrimidin-5-yl]-phenethyl-amine]
< 1 µM | COc1ccc(-n2nnc3cnc(N[C@H]4C[C@H](O)C4)nc32)cc1 [A24, trans-3-[3-(4-methoxy-phenyl)-3H-[1,2,3]triazolo[4,5-d]pyrimidin-5-ylamino]-cyclobutanol]
1 to 5 µM | COc1ccc(-n2nnc3cnc(NCCCN4CCN(C)CC4)nc32)cc1 [A13, [3-(4-methoxy-phenyl)-3H-[1,2,3]triazolo[4,5-d]pyrimidin-5-yl]-[3-(4-methyl-piperazin-1-yl)-propyl]-amine]
< 1 µM | COc1ccc(-n2nnc3cnc(N[C@@H]4CCC[C@@H](O)C4)nc32)cc1 [A201, (1R,3R)-3-[3-(4-methoxy-phenyl)-3H-[1,2,3]triazolo[4,5-d]pyrimidin-5-ylamino]-cyclohexanol]
< 1 µM | COc1ccc(-n2nnc3cnc(N[C@@H]4CC[C@H](C(=O)O)C4)nc32)cc1 [A79, (1S,3R)-3-[3-(4-methoxy-phenyl)-3H-[1,2,3]triazolo[4,5-d]pyrimidin-5-ylamino]-cyclopentanecarboxylic acid]
< 1 µM | CCOc1ccc(-n2nnc3cnc(NCCc4cnn(C)c4)nc32)cc1 [B7, [3-(4-ethoxy-phenyl)-3H-[1,2,3]triazolo[4,5-d]pyrimidin-5-yl]-[2-(1-methyl-1H-pyrazol-4-yl)-ethyl]-amine]
< 1 µM | COc1ccc(-n2nnc3cnc(N[C@H]4C[C@H](NC(=O)OC(C)(C)C)C4)nc32)cc1 [A32, {trans-3-[3-(4-methoxy-phenyl)-3H-[1,2,3]triazolo[4,5-d]pyrimidin-5-ylamino]-cyclobutyl}-carbamic acid tert-butyl ester]
< 1 µM | COCCOc1ccc(-n2nnc3cnc(N[C@@H]4CC[C@H](C(N)=O)C4)nc32)cc1 [A166, (1S,3R)-3-{3-[4-(2-methoxy-ethoxy)-phenyl]-3H-[1,2,3]triazolo[4,5-d]pyrimidin-5-ylamino}-cyclopentanecarboxylic acid amide]
< 1 µM | COc1ccc(-n2nnc3cnc(N[C@@H]4CC[C@H](C(=O)N5CCN(C)CC5)C4)nc32)cc1 [A97, {(1S,3R)-3-[3-(4-methoxy-phenyl)-3H-[1,2,3]triazolo[4,5-d]pyrimidin-5-ylamino]-cyclopentyl}-(4-methyl-piperazin-1-yl)-methanone]
< 1 µM | COc1ccc(-n2nnc3cnc(N[C@@H]4CC[C@H](C#N)C4)nc32)cc1 (relative stereo) [A275, cis-3-[3-(4-Methoxy-phenyl)-3H-[1,2,3]triazolo[4,5-d]pyrimidin-5-ylamino]-cyclopentanecarbonitrile]
< 1 µM | COc1ccc(-n2nnc3cnc(N[C@@H]4CC[C@@H](C(=O)O)C4)nc32)cc1 [A139, (1R,3R)-3-[3-(4-methoxy-phenyl)-3H-[1,2,3]triazolo[4,5-d]pyrimidin-5-ylamino]-cyclopentanecarboxylic acid]
< 1 µM | N[C@H]1CC[C@H](Nc2ncc3nnn(-c4ccc(I)cc4)c3n2)CC1 [A53, N-[3-(4-iodo-phenyl)-3H-[1,2,3]triazolo[4,5-d]pyrimidin-5-yl]-cyclohexane-1,4-diamine]
< 1 µM | COc1ccc(-n2nnc3cnc(N[C@@H]4CC[C@H](CNC(=O)OC(C)(C)C)C4)nc32)cc1 (relative stereo) [A117, {(cis)-3-[3-(4-methoxy-phenyl)-3H-[1,2,3]triazolo[4,5-d]pyrimidin-5-ylamino]-cyclopentylmethyl}-carbamic acid tert-butyl ester]
< 1 µM | COc1ccc(-n2nnc3cnc(NC4CCN(C(=O)OC(C)(C)C)CC4)nc32)cc1 [A34, 4-[3-(4-methoxy-phenyl)-3H-[1,2,3]triazolo[4,5-d]pyrimidin-5-ylamino]-piperidine-1-carboxylic acid tert-butyl ester]
< 1 µM | Cn1cc(-c2ccc(-n3nnc4cnc(N[C@H]5CC[C@H](O)C5)nc43)nc2)cn1 (relative stereo) [A94, trans-3-{3-[5-(1-methyl-1H-pyrazol-4-yl)-pyridin-2-yl]-3H-[1,2,3]triazolo[4,5-d]pyrimidin-5-ylamino}-cyclopentanol]
1 to 5 µM | COc1ccc(-n2nnc3cnc(NC4CCCNC4)nc32)cc1 (stereo not shown) [A43, [3-(4-methoxy-phenyl)-3H-[1,2,3]triazolo[4,5-d]pyrimidin-5-yl]-piperidin-3-yl-amine hydrochloride]
5 to 10 µM | COc1ccc(-n2nnc3cnc(NCCCN4CCCC4)nc32)cc1 [A61, [3-(4-methoxy-phenyl)-3H-[1,2,3]triazolo[4,5-d]pyrimidin-5-yl]-(3-pyrrolidin-1-yl-propyl)-amine]

IC50 | SMILES
< 1 µM | COc1c(F)cc(-n2nnc3cnc(N[C@@H]4CC[C@@H](C(N)=O)C4)nc32)cc1F [A163, (1R,3R)-3-[3-(3,5-difluoro-4-methoxy-phenyl)-3H-[1,2,3]triazolo[4,5-d]pyrimidin-5-ylamino]-cyclopentanecarboxylic acid amide]
1 to 5 µM | COCCn1cc(-n2nnc3cnc(N[C@@H]4CCC[C@@H](C(N)=O)C4)nc32)cn1 (relative stereo) [A165, (trans)-3-{3-[1-(2-methoxy-ethyl)-1H-pyrazol-4-yl]-3H-[1,2,3]triazolo[4,5-d]pyrimidin-5-ylamino}-cyclohexanecarboxylic acid amide]
5 to 10 µM | COc1ccc(-n2nnc3cnc(N[C@H]4CCNC4)nc32)cc1 [A77, [3-(4-methoxy-phenyl)-3H-[1,2,3]triazolo[4,5-d]pyrimidin-5-yl]-(S)-pyrrolidin-3-yl-amine hydrochloride]
5 to 10 µM | COc1ccc(-n2nnc3cnc(NC4C5CN(C)CC54)nc32)cc1 (stereo not shown) [A19, [3-(4-methoxy-phenyl)-3H-[1,2,3]triazolo[4,5-d]pyrimidin-5-yl]-(3-methyl-3-aza-bicyclo[3.1.0]hex-6-yl)-amine]
< 1 µM | Cc1ccc2cc(-n3nnc4cnc(N[C@@H]5CCNC5)nc43)ccc2n1 [A126, [3-(2-methyl-quinolin-6-yl)-3H-[1,2,3]triazolo[4,5-d]pyrimidin-5-yl]-(R)-pyrrolidin-3-yl-amine]
< 1 µM | COc1ccc(-n2nnc3cnc(N[C@@H]4CCN(C(=O)CN(C)C)C4)nc32)cc1 [A83, 2-dimethylamino-1-{(R)-3-[3-(4-methoxy-phenyl)-3H-[1,2,3]triazolo[4,5-d]-pyrimidin-5-ylamino]-pyrrolidin-1-yl}-ethanone formate]
< 1 µM | COCCn1cc(-c2ccc(-n3nnc4cnc(N[C@H]5CC[C@H](O)C5)nc43)cn2)cn1 (relative stereo) [A234, (trans)-3-(3-{6-[1-(2-methoxy-ethyl)-1H-pyrazol-4-yl]-pyridin-3-yl}-3H-[1,2,3]triazolo[4,5-d]pyrimidin-5-ylamino)-cyclopentanol]
1 to 5 µM | COc1ccc(-n2nnc3cnc(N[C@@H]4CCNC4)nc32)cc1 [A69, [3-(4-methoxy-phenyl)-3H-[1,2,3]triazolo[4,5-d]pyrimidin-5-yl]-(R)-pyrrolidin-3-yl-amine hydrochloride]
< 1 µM | COc1ccc(-n2nnc3cnc(NC4CCNCC4)nc32)cc1 [A40, [3-(4-methoxy-phenyl)-3H-[1,2,3]triazolo[4,5-d]pyrimidin-5-yl]-piperidin-4-yl-amine hydrochloride]
< 1 µM | COc1ccc(-n2nnc3cnc(N[C@H]4CC[C@H](O)CC4)nc32)cc1 [A6, trans-4-[3-(4-methoxy-phenyl)-3H-[1,2,3]triazolo[4,5-d]pyrimidin-5-ylamino]-cyclohexanol]
< 1 µM | COc1ccc(-n2nnc3cnc(N[C@@H]4CC[C@H](c5ncc(C)o5)C4)nc32)cc1 [A267, [3-(4-methoxy-phenyl)-3H-[1,2,3]triazolo[4,5-d]pyrimidin-5-yl]-[(1R,3S)-3-(5-methyl-oxazol-2-yl)-cyclopentyl]-amine]
< 1 µM | COc1ccc(-n2nnc3cnc(N[C@H]4CC[C@@H](CCO)CC4)nc32)cc1 [A73, cis-2-{4-[3-(4-methoxy-phenyl)-3H-[1,2,3]triazolo[4,5-d]pyrimidin-5-ylamino]-cyclohexyl}-ethanol]
1 to 5 µM | COc1ccc(-n2nnc3cnc(NC4CN(C(=O)CN(C)C)C4)nc32)cc1 [A62, 2-dimethylamino-1-{3-[3-(4-methoxy-phenyl)-3H-[1,2,3]triazolo[4,5-d]pyrimidin-5-ylamino]-azetidin-1-yl}-ethanone]
< 1 µM | Nc1cnn(CCCNc2ncc3nnn(-c4ccc(OCCC(=O)O)cc4)c3n2)c1 [A47, 3-(4-{5-[3-(4-amino-pyrazol-1-yl)-propylamino]-[1,2,3]triazolo[4,5-d]pyrimidin-3-yl}-phenoxy)-propionic acid]
< 1 µM | COc1ccc(-n2nnc3cnc(N[C@@H]4CC[C@@H](O)C4)nc32)cc1 (racemic) [A10, trans-3-[3-(4-methoxy-phenyl)-3H-[1,2,3]triazolo[4,5-d]pyrimidin-5-ylamino]-cyclopentanol]
< 1 µM | O[C@@H]1CC[C@@H](Nc2ncc3nnn(-c4ccc(Br)cc4)c3n2)C1 (relative stereo) [A29, trans-3-[3-(4-bromo-phenyl)-3H-[1,2,3]triazolo[4,5-d]pyrimidin-5-ylamino]cyclopentanol]
1 to 5 µM | COc1ccc(-n2nnc3cnc(N[C@H]4CC[C@@H](NC(=O)OCc5ccccc5)C4)nc32)cc1 [A89, {(1R,3S)-3-[3-(4-methoxy-phenyl)-3H-[1,2,3]triazolo[4,5-d]pyrimidin-5-ylamino]-cyclopentyl}-carbamic acid benzyl ester]
